The values below come from patent US20250090545A1, “METHODS AND COMPOSITIONS FOR TREATMENT OF PERIPHERAL NEUROPATHIES” (UNIVERSITY OF MANITOBA, priority 2013, published 2025).

Data set [1] has as its system STZ-induced diabetic Swiss Webster mice. The data set is described as follows: Topical atropine (eye or paw) in STZ-induced diabetic Swiss Webster mice. It is filed as in vivo, mouse. The following applies: 5 days/wk, 12 weeks. The procedure:
Groups of adult Swiss Webster mice were made diabetic with STZ and then treated 5 days/wk with atropine delivered topically to one eye (2% solution) or topically to one paw (2% gel) for 12 weeks. Measurements were made on both the treated and untreated hind paw. Indices of large motor fiber function (MNCV; FIG. 21) and sensory sensory fiber function (paw thermal latency; FIG. 22) were measured and compared to those of age-matched control mice that were treated in an equivalent manner. […] The data shown in FIGS. 21 and 22 are group means±SEM with N=6-10/group. Significant differences were determined by unpaired t-test to compare control and diabetic animals under each condition (vehicle, atropine to the eye, atropine to the foot).

Data set [2] deals with cultured adult rat sensory neurons. Description: Total neurite outgrowth in cultured adult sensory neurons. It is filed as cell-based. The source says: The fundamental hypothesis is that blocking endogenous cholinergic constraint using a muscarinic receptor antagonist will promote re-growth of neurons in patients with established peripheral neuropathy. This occurs via activation of AMPK and PGC-1α and the subsequent augmentation of mitochondrial function. This pathway comprises a proximal step involving M1 receptor antagonist-dependent activation of CaMKKβ (or CaMKK2). This hypothesis is supported by extensive preclinical data using in vitro and in vivo model systems. […] A specific requirement for M1 receptor antagonism is confirmed by the increased neurite outgrowth from sensory neurons derived from M1R KO mice.
The highly specific M1 receptor antagonist, MT7 (muscarinic toxin 7), enhanced neurite outgrowth in cultured adult rat sensory neurons (FIGS. 9(A), 9(B), 10). The data in FIG. 10 are means±SEM of 9 replicate cultures. Significant differences were determined by one-way ANOVA with Dunnett's post-hoc test.

Data set [3] deals with AMP-activated protein kinase (AMPK). The data set is described as follows: AMPK phosphorylation (Western blot) in cultured adult sensory neurons. Type of data set: cell-based, rat. Particulars: 1.0μM; neurons from age-matched control rats. As for the experimental part:
Subsets of cultured adult sensory neurons derived from age-matched control rats or 3-5 month STZ-induced diabetic rats were treated with a 1.0 μM pirenzepine-HCl dosage. The first subset was processed immediately while the second, third and fourth subsets of the neurons from the control rats and the diabetic rats were processed after 15 min, after 30 min, and after 60 min respectively following treatment with pirenzepine. The cell cultures were lysed and then used to prepare Western blots which were then probed with antibodies against phosphorylated AMPK (P-AMPK), total AMPK (T-AMPK) and total ERK (T-ERK). […] Values are means±SEM, N=3/group. Statistical significance was analyzed using one-way ANOVA with Tukey's post-hoc test.
(In general: In western blotting, separated proteins are transferred to a membrane and probed.)

The subject of the next data set is PGC-1α. The data set is described as follows: PGC-1α transcriptional activity, luciferase reporter in adult sensory neurons. Particulars: 0.3μM co-treatment with MT7. It is filed as cell-based, rat. As for the experimental part: PGC-1α transcriptional activity was determined in dissociated adult sensory neurons derived from STZ-induced diabetic rats by transfection for two days with luciferase-based reporter plasmids by following the methods taught in the AMAXA® NUCLEOFECTOR® II Manual (www.amaxa.com; AMAX and NUCLEOFECTOR are registered trademarks of Amaxa GmBH Corp., Koln, Fed. Rep. Germany) and by Saleh et al. (2013, Ciliary neurotrophic factor activates NF-κB to enhance mitochondrial bioenergetics and prevent neuropathy in sensory neurons of streptozotocin-induced diabetic rodents. Neuropharmacology 65:65-75) (the luciferase-based reporter plasmids were a gift from Dr. Michael Czubryt, University of Manitoba).

Data set [4] relates to adult sensory neurons from normal rats. The data set is described as follows: Neurite outgrowth of sensory neurons exposed to paclitaxel or oxaliplatin. Particulars: 24 hours; paclitaxel 0.1 or 0.3 μM, oxaliplatin 3.0 μM. It is filed as cell-based, rat. As for the experimental part:
Adult sensory neurons from normal rats were cultured for 24 hours in the presence of(A) paclitaxel (PX; 0.1 μM or 0.3 μM), or (B) oxaliplatin (OX; 3.0 μM). From time of plating some cultures were treated with 0.1, 1.0 or 10 μM pirenzepine (PZ). Levels of total neurite outgrowth were determined and presented as means±SEM, N=6-8/group. Significant differences were assessed in(A) by t-test, and in(B) by one-way ANOVA with Dunnett's post-hoc test.

A further data set relates to db/db mice. The data set is described as follows: Topical oxybutynin in db/db mouse model of type 2 diabetes. It is filed as in vivo. As for the experimental part: The muscarinic receptor antagonist oxybutynin was tested for efficacy against a functional measure of sensory neuropathy in the db/db mouse model of type 2 diabetes (FIG. 15). Thermal latency was analyzed as taught by Calcutt et al. (2004, Prevention of sensory disorders in diabetic Sprague-Dawley rats by aldose reductase inhibition or treatment with ciliary neurotrophic factor. Diabetologia 47:718-24). […] Some diabetic mice were then treated with oxybutynin (Oxy: 2% in hydrogel) applied to the right paw for 20 min/day 5 days a week, while others were treated with hydrogel vehicle alone. […] Data are group mean±SEM of N=8-9/group.
IENF levels were quantified as taught by Beiswenger et al. (2008, Epidermal nerve fiber quantification in the assessment of diabetic neuropathy. Acta Histochem. 110:351-63). The data shown in FIG. 16(A) are group mean±SEM of N=6-8/group. Significant differences were determined with a oneway ANOVA followed by Dunnett's post-hoc test. […] After 8 weeks of topical oxybutynin treatment, the eyes were assessed using corneal confocal microscopy as taught by Chen et al. (2013, Repeated monitoring of corneal nerves by confocal microscopy as an index of peripheral neuropathy in type-1 diabetic rodents and the effects of topical insulin. J. Periph. Nerv. Syst. 18;306-315).

Data set [5] has as its system STZ-induced diabetic Swiss Webster mice. The data set is described as follows: Systemic oxybutynin in STZ-induced diabetic Swiss Webster mice, thermal hypoalgesia. Type of data set: in vivo, mouse. Particulars: 9 weeks after 8 weeks of untreated diabetes.
Where [6] appears, read: 2% solution topically to one eye.
Setting [7] is: topical, 8 weeks, values not significantly different from controls.

As to `CN1[C@@H]2CC[C@H]1C[C@@H](OC(=O)C(CO)c1ccccc1)C2` (stereo partly shown) [atropine], in data set [1] (2% gel topically to one paw), the “large fiber MNCV” value is reported as “not different to controls” and the “paw thermal hypoalgesia (paw thermal latency)” value is listed as “not different to controls”. Also, in data set [1] (setting [6]), the “large fiber MNCV” value is recorded as “not different to controls” and the “paw thermal hypoalgesia (paw thermal latency)” value is recorded as “not different to controls”.
With `O=C(O)c1ccc2c3c1cccc3c(=O)n1c3ccccc3nc21` [STO-609], the “effect on pirenzepine-induced neurite outgrowth” value in data set [2] (cultured adult rat sensory neurons) is reported as “dose-dependently inhibited”. Besides, in data set [3], the “effect on MT7-induced enhancement of AMPK phosphorylation” value is “inhibited” and the “effect on pirenzepine-induced enhancement of AMPK phosphorylation” value is “inhibited”.
On to `c1cc(-c2cnn3cc(-c4ccc(OCCN5CCCCC5)cc4)cnc23)ccn1` [Compound C], for which, in the data set on PGC-1α, the “effect on MT7 stimulation of PGC-1α transcription” value was “blocked”.
For `O=C1[O][Pt]2([NH][C@@H]3CCCC[C@H]3[NH]2)[O]C1=O` [oxaliplatin], the “neurite outgrowth of sensory neurons exposed in vitro to the chemotherapeutic” value in data set [4] is given as “reduced neurite outgrowth”.
As for `CCN(CC)CC#CCOC(=O)C(O)(c1ccccc1)C1CCCCC1` (stereo not shown) [oxybutynin, 4-dicthylaminobut-2-ynyl-2-cyclohexyl-2-hydroxy-2-phenyl-ethanoate], in data set [2] (cultured adult sensory neurons from normal adult rodents), the total neurite outgrowth result is listed as “elevated”. Besides, the “paw thermal hypoalgesia (thermal latency)” value in the data set on db/db mice (2% in hydrogel to right paw 20 min/day, 5 days a week, 8 weeks, p<0.01 vs vehicle) is on record as “reversed”. Moreover, the “time of treatment to reversal of thermal hypoalgesia” value with db/db mice (topical oxybutynin) was 4-8 weeks. In the data set with db/db mice (setting [7]), the “reduction in density of IENF in paw skin” value is “attenuated” and the “reduction in nerve fiber occupancy in the cornea” value is “attenuated”. In addition, the thermal hypoalgesia entry in data set [5] (3 mg/kg s.c.) is reported as “able to reverse”. For the same compound, in data set [5] (10 mg/kg s.c.), the thermal hypoalgesia entry is listed as “able to reverse”.
